Measurements: US9738634B2, “Heterocyclic amide compound and herbicide” (SYNGENTA PARTICIPATIONS AG, priority 2013, dated 2017)

Experiments:
Format in all cases: in vivo
barnyard grass [1] = assay: Test Example 1: weedkilling efficacy, preemergent weed treatment in the submerged state; A: barnyard grass; conditions: treatment dosage 1000 g/ha
Procedure, shortened: (§1)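 Pots of alluvial soil flooded 4 cm deep, sown with barnyard grass, bulrush and oval-leafed pondweed and transplanted with 2.5-leaf rice. Emulsified compound applied to the water surface on sowing day at stated g/ha; greenhouse 25–30 °C, effects assessed 3 weeks after treatment.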

bulrush [2] = assay: Test Example 1: weedkilling efficacy, preemergent weed treatment in the submerged state; B: bulrush; conditions: treatment dosage 1000 g/ha
Procedure, shortened: as §1

oval-leafed pondweed [3] = assay: Test Example 1: weedkilling efficacy, preemergent weed treatment in the submerged state; C: oval-leafed pondweed; conditions: treatment dosage 1000 g/ha
Procedure, shortened: as §1

transplanted rice = assay: Test Example 1: preemergent weed treatment in the submerged state, effect on crop; a: transplanted rice; conditions: treatment dosage 1000 g/ha
Procedure, shortened: as §1

barnyard grass [4] = assay: Test Example 2: weedkilling efficacy, growth period weed treatment in the submerged state; A: barnyard grass; conditions: treatment dosage 1000 g/ha
Procedure, shortened: (§2)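 Barnyard grass, bulrush and oval-leafed pondweed sown in alluvial soil under 4 cm flooding, greenhouse 25 to 30° C. At 1-2 leaf stage, water-diluted emulsion applied to the water surface at stated g/ha dosages; effects scored 3 weeks later.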

bulrush [5] = assay: Test Example 2: weedkilling efficacy, growth period weed treatment in the submerged state; B: bulrush; conditions: treatment dosage 1000 g/ha
Procedure, shortened: as §2

oval-leafed pondweed [6] = assay: Test Example 2: weedkilling efficacy, growth period weed treatment in the submerged state; C: oval-leafed pondweed; conditions: treatment dosage 1000 g/ha
Procedure, shortened: as §2

crabgrass [7] = assay: Test Example 3: weedkilling efficacy through soil treatment; D: crabgrass; conditions: treatment dosage 1250 g/ha
Procedure, shortened: (§3)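 Crop and weed responses were judged three weeks after a uniform surface spray of the water-diluted emulsion at the given g/ha rate. Seeds sat beneath about 1.5 cm of sterilized diluvial soil, and boxes stood in a greenhouse at 25 to 30° C.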

green foxtail [8] = assay: Test Example 3: weedkilling efficacy through soil treatment; E: green foxtail; conditions: treatment dosage 1250 g/ha
Procedure, shortened: as §3

wild oat [9] = assay: Test Example 3: weedkilling efficacy through soil treatment; G: wild oat; conditions: treatment dosage 1250 g/ha
Procedure, shortened: as §3

black-grass [10] = assay: Test Example 3: weedkilling efficacy through soil treatment; H: black-grass; conditions: treatment dosage 1250 g/ha
Procedure, shortened: as §3

Italian ryegrass [11] = assay: Test Example 3: weedkilling efficacy through soil treatment; I: Italian ryegrass; conditions: treatment dosage 1250 g/ha
Procedure, shortened: as §3

Indian mallow [12] = assay: Test Example 3: weedkilling efficacy through soil treatment; K: Indian mallow; conditions: treatment dosage 1250 g/ha
Procedure, shortened: as §3

redroot pigweed [13] = assay: Test Example 3: weedkilling efficacy through soil treatment; L: redroot pigweed; conditions: treatment dosage 1250 g/ha
Procedure, shortened: as §3

fig-leafed goosefoot [14] = assay: Test Example 3: weedkilling efficacy through soil treatment; M: fig-leafed goosefoot; conditions: treatment dosage 1250 g/ha
Procedure, shortened: as §3

chickweed [15] = assay: Test Example 3: weedkilling efficacy through soil treatment; N: chickweed; conditions: treatment dosage 1250 g/ha
Procedure, shortened: as §3

catchweed [16] = assay: Test Example 3: weedkilling efficacy through soil treatment; O: catchweed; conditions: treatment dosage 1250 g/ha
Procedure, shortened: as §3

birds-eye speedwell [17] = assay: Test Example 3: weedkilling efficacy through soil treatment; p: birds-eye speedwell; conditions: treatment dosage 1250 g/ha
Procedure, shortened: as §3

directly sown rice [18] = assay: Test Example 3: soil treatment, effect on crop; b: directly sown rice; conditions: treatment dosage 1250 g/ha
Procedure, shortened: as §3

corn [19] = assay: Test Example 3: soil treatment, effect on crop; c: corn; conditions: treatment dosage 1250 g/ha
Procedure, shortened: as §3

soybean [20] = assay: Test Example 3: soil treatment, effect on crop; d: soybean; conditions: treatment dosage 1250 g/ha
Procedure, shortened: as §3

wheat [21] = assay: Test Example 3: soil treatment, effect on crop; e: wheat; conditions: treatment dosage 1250 g/ha
Procedure, shortened: as §3

beet [22] = assay: Test Example 3: soil treatment, effect on crop; f: beet; conditions: treatment dosage 1250 g/ha
Procedure, shortened: as §3

crabgrass [23] = assay: Test Example 4: weedkilling efficacy by foliar treatment; D: crabgrass; conditions: treatment dosage 1250 g/ha
Procedure, shortened: (§4)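 Seeds are spot-sown into sterilized diluvial soil and covered with about 1.5 cm of soil. After 14 days' greenhouse growth at 25 to 30° C, plants are sprayed on stems and leaves with diluted emulsion at the stated g/ha rate, then scored at 3 weeks.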

green foxtail [24] = assay: Test Example 4: weedkilling efficacy by foliar treatment; E: green foxtail; conditions: treatment dosage 1250 g/ha
Procedure, shortened: as §4

wild oat [25] = assay: Test Example 4: weedkilling efficacy by foliar treatment; G: wild oat; conditions: treatment dosage 1250 g/ha
Procedure, shortened: as §4

black-grass [26] = assay: Test Example 4: weedkilling efficacy by foliar treatment; H: black-grass; conditions: treatment dosage 1250 g/ha
Procedure, shortened: as §4

Italian ryegrass [27] = assay: Test Example 4: weedkilling efficacy by foliar treatment; I: Italian ryegrass; conditions: treatment dosage 1250 g/ha
Procedure, shortened: as §4

Indian mallow [28] = assay: Test Example 4: weedkilling efficacy by foliar treatment; K: Indian mallow; conditions: treatment dosage 1250 g/ha
Procedure, shortened: as §4

redroot pigweed [29] = assay: Test Example 4: weedkilling efficacy by foliar treatment; L: redroot pigweed; conditions: treatment dosage 1250 g/ha
Procedure, shortened: as §4

fig-leafed goosefoot [30] = assay: Test Example 4: weedkilling efficacy by foliar treatment; M: fig-leafed goosefoot; conditions: treatment dosage 1250 g/ha
Procedure, shortened: as §4

chickweed [31] = assay: Test Example 4: weedkilling efficacy by foliar treatment; N: chickweed; conditions: treatment dosage 1250 g/ha
Procedure, shortened: as §4

catchweed [32] = assay: Test Example 4: weedkilling efficacy by foliar treatment; O: catchweed; conditions: treatment dosage 1250 g/ha
Procedure, shortened: as §4

birds-eye speedwell [33] = assay: Test Example 4: weedkilling efficacy by foliar treatment; p: birds-eye speedwell; conditions: treatment dosage 1250 g/ha
Procedure, shortened: as §4

directly sown rice [34] = assay: Test Example 4: foliar treatment, effect on crop; b: directly sown rice; conditions: treatment dosage 1250 g/ha
Procedure, shortened: as §4

corn [35] = assay: Test Example 4: foliar treatment, effect on crop; c: corn; conditions: treatment dosage 1250 g/ha
Procedure, shortened: as §4

soybean [36] = assay: Test Example 4: foliar treatment, effect on crop; d: soybean; conditions: treatment dosage 1250 g/ha
Procedure, shortened: as §4

wheat [37] = assay: Test Example 4: foliar treatment, effect on crop; e: wheat; conditions: treatment dosage 1250 g/ha
Procedure, shortened: as §4

beet [38] = assay: Test Example 4: foliar treatment, effect on crop; f: beet; conditions: treatment dosage 1250 g/ha
Procedure, shortened: as §4

## CC1=C(c2cccnc2Cl)C(=O)N(C(C)(C)C(=O)Nc2cccc(F)n2)CO1 [B-2-19]
Barnyard grass [1]
  A (barnyard grass) weedkilling efficacy grade: 5 (weed kill ratio 90% or more, (practically complete withering))
Bulrush [2]
  B (bulrush) weedkilling efficacy grade: 5 (weed kill ratio 90% or more, (practically complete withering))
oval-leafed pondweed [3]
  C (oval-leafed pondweed) weedkilling efficacy grade: 4 (weed kill ratio 70% or more, less than 90%)
Transplanted rice
  a (transplanted rice) effect on crop grade: 0 (weed kill ratio 5% or less (practically no effect))
Barnyard grass [4]
  A (barnyard grass) weedkilling efficacy grade: 2 (weed kill ratio 20% or more, less than 40%)
Bulrush [5]
  B (bulrush) weedkilling efficacy grade: 5 (weed kill ratio 90% or more, (practically complete withering))
oval-leafed pondweed [6]
  C (oval-leafed pondweed) weedkilling efficacy grade: 3 (weed kill ratio 40% or more, less than 70%)
Crabgrass [7]
  D (crabgrass) weedkilling efficacy grade: 5 (weed kill ratio 90% or more, (practically complete withering))
Green foxtail [8]
  E (green foxtail) weedkilling efficacy grade: 5 (weed kill ratio 90% or more, (practically complete withering))
Wild oat [9]
  G (wild oat) weedkilling efficacy grade: 5 (weed kill ratio 90% or more, (practically complete withering))
black-grass [10]
  H (black-grass) weedkilling efficacy grade: 5 (weed kill ratio 90% or more, (practically complete withering))
Italian ryegrass [11]
  I (Italian ryegrass) weedkilling efficacy grade: 5 (weed kill ratio 90% or more, (practically complete withering))
Indian mallow [12]
  K (Indian mallow) weedkilling efficacy grade: 0 (weed kill ratio 5% or less (practically no effect))
Redroot pigweed [13]
  L (redroot pigweed) weedkilling efficacy grade: 4 (weed kill ratio 70% or more, less than 90%)
fig-leafed goosefoot [14]
  M (fig-leafed goosefoot) weedkilling efficacy grade: 5 (weed kill ratio 90% or more, (practically complete withering))
Chickweed [15]
  N (chickweed) weedkilling efficacy grade: 4 (weed kill ratio 70% or more, less than 90%)
Catchweed [16]
  O (catchweed) weedkilling efficacy grade: 0 (weed kill ratio 5% or less (practically no effect))
birds-eye speedwell [17]
  P (birds-eye speedwell) weedkilling efficacy grade: 4 (weed kill ratio 70% or more, less than 90%)
Directly sown rice [18]
  b (directly sown rice) effect on crop grade: 4 (weed kill ratio 70% or more, less than 90%)
Corn [19]
  c (corn) effect on crop grade: 0 (weed kill ratio 5% or less (practically no effect))
Soybean [20]
  d (soybean) effect on crop grade: 0 (weed kill ratio 5% or less (practically no effect))
Wheat [21]
  e (wheat) effect on crop grade: 0 (weed kill ratio 5% or less (practically no effect))
Beet [22]
  f (beet) effect on crop grade: 4 (weed kill ratio 70% or more, less than 90%)
Crabgrass [23]
  D (crabgrass) weedkilling efficacy grade: 5 (weed kill ratio 90% or more, (practically complete withering))
Green foxtail [24]
  E (green foxtail) weedkilling efficacy grade: 5 (weed kill ratio 90% or more, (practically complete withering))
Wild oat [25]
  G (wild oat) weedkilling efficacy grade: 3 (weed kill ratio 40% or more, less than 70%)
black-grass [26]
  H (black-grass) weedkilling efficacy grade: 5 (weed kill ratio 90% or more, (practically complete withering))
Italian ryegrass [27]
  I (Italian ryegrass) weedkilling efficacy grade: 4 (weed kill ratio 70% or more, less than 90%)
Indian mallow [28]
  K (Indian mallow) weedkilling efficacy grade: 0 (weed kill ratio 5% or less (practically no effect))
Redroot pigweed [29]
  L (redroot pigweed) weedkilling efficacy grade: 3 (weed kill ratio 40% or more, less than 70%)
fig-leafed goosefoot [30]
  M (fig-leafed goosefoot) weedkilling efficacy grade: 3 (weed kill ratio 40% or more, less than 70%)
Chickweed [31]
  N (chickweed) weedkilling efficacy grade: 3 (weed kill ratio 40% or more, less than 70%)
Catchweed [32]
  O (catchweed) weedkilling efficacy grade: 3 (weed kill ratio 40% or more, less than 70%)
birds-eye speedwell [33]
  P (birds-eye speedwell) weedkilling efficacy grade: 5 (weed kill ratio 90% or more, (practically complete withering))
Directly sown rice [34]
  b (directly sown rice) effect on crop grade: 4 (weed kill ratio 70% or more, less than 90%)
Corn [35]
  c (corn) effect on crop grade: 1 (weed kill ratio 5% or more, less than 20%)
Soybean [36]
  d (soybean) effect on crop grade: 1 (weed kill ratio 5% or more, less than 20%)
Wheat [37]
  e (wheat) effect on crop grade: 0 (weed kill ratio 5% or less (practically no effect))
Beet [38]
  f (beet) effect on crop grade: 3 (weed kill ratio 40% or more, less than 70%)
